Experimental data taken from patent publication US20250129103A1, “METHODS FOR TREATMENT OF CANCER” (Frontier Medicines Corporation, priority 2022, published 2025).
Values after ≈ are worked out from the molar mass of the structure shown.

Assays:
[1] = target: KRAS G12C (GMPPNP-loaded) and cRAF (Ras-binding domain) interaction (Homo sapiens (Human), UniProt P01116, C118S/C51S/C80L/G12C); test: Inhibition of KRAS G12C and cRAF binding (AlphaScreen); details: KRAS G12C loaded with GMPPNP, cRaf RBD, 2 hours preincubation; read-out: Raf-1 RBD K-Ras IC50
Outline: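 AlphaScreen readout (680 nm excitation, 570 nm emission) of RBD binding after a 60-90 min bead step at room temperature. This step follows 2 h compound exposure of GMPPNP-preloaded KRAS G12C in Hepes pH 7.4 buffer with MgCl2 and 10 μM GMPPNP.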

[2] = Determination of kinetic solubility (pH 7.4); type: physicochemical; details: for solubility kinetic at 2 h: phosphate buffer, pH 7.4, aqueous buffer, kinetic from dmso stock, 50 mM phosphate buffer pH 7.4, read-out: Ksol, pH 7.4
Outline: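 Solubility taken from filtrate peak areas on a calibration curve (HPLC-UV, LC-MS/MS). Before filtration and centrifugation, compound was shaken for 2 h at room temperature in pH 7.4 50 mM phosphate buffer.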

[3] = target: KRAS G12C (GMPPNP-loaded) and PI3Ka (Ras-binding domain) interaction (Homo sapiens (Human), UniProt P01116, C118S/C51S/C80L/G12C); test: Inhibition of KRAS G12C and PI3Ka binding (AlphaScreen); details: KRAS G12C loaded with GMPPNP, PI3Ka RBD, 2 hours preincubation; read-out: PI3K RBD K-Ras IC50
Outline: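 Biotin-AviTag Cys-light KRAS G12C (aa 1-169, C51S/C80L/C118S), GMPPNP-loaded, 1.5 nM, preincubated 2 h with compound, then His-tagged PI3Ka RBD (aa 157-300, 100 nM) plus AlphaScreen beads added for 60-90 min, RT. Buffer Hepes pH 7.4, 10 μM GMPPNP, 2% DMSO; 10-point 1:3 from 50 μM; 4-parameter IC50.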

[4] = Determination of logD (1-octanol / phosphate buffer pH 7.4); type: physicochemical; details: 1-octanol/phosphate buffer, pH 7.4, pH 7.4, 1-octanol/phosphate buffer; read-out: Log D, pH 7.4
Outline: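 Each phase analysed by LCMS after 1 h shaking at 800 rpm and centrifugation, room temperature. Phases were mutually saturated 1-octanol and 100 mM phosphate buffer at pH 7.4. LogD derived from the phase concentrations.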

Sequence of KRAS G12C (GMPPNP-loaded) and PI3Ka (Ras-binding domain) interaction (P01116 other isoform, or with tags, fused parts or gaps G12C/C51S/C80L/C118S): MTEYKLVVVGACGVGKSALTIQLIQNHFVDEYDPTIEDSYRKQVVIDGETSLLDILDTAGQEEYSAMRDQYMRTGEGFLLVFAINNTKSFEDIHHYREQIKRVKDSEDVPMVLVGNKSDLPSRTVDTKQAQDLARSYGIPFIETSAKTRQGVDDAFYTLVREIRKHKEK
Sequence of KRAS G12C (GMPPNP-loaded) and cRAF (Ras-binding domain) interaction (P01116 other isoform, or with tags, fused parts or gaps G12C/C51S/C80L/C118S): as above

| Structure (SMILES) | IC50 [1] [nM] | solubility kinetic at 2 h [2] [µg/mL] | IC50 [3] [nM] | logD [4] | Ksol, pH 7.4 (ug/mL) ([2]; 50 mM phosphate buffer pH 7.4) |
| --- | --- | --- | --- | --- | --- |
| N#CC[C@H]1CN(c2nc(OC[C@@]34CCCN3C[C@H](F)C4)nc3c(F)c(-c4cccc5ccc(F)c(Cl)c45)ncc23)CCN1C(=O)/C=C/CN1CC2CC(C1)O2 [Example 77, 2-((2S)-1-((E)-4-(6-oxa-3-azabicyclo[3.1.1]heptan-3-yl)but-2-enoyl)-4-(7-(8-chloro-7-fluoronaphthalen-1-yl)-8-fluoro-2-(((2R,7aS)-2-fluorotetrahydro-1H-pyrrolizin-7a(5H)-yl)methoxy)pyrido[4,3-d]pyrimidin-4-yl)piperazin-2-yl)acetonitrile] | < 10 | 116 (≈ 151 µM) | < 10 | 2.92 |  |
| CCc1nccc(/C=C/C(=O)N2CCN(c3nc(OC[C@@]45CCCN4C[C@H](F)C5)nc4c(F)c(-c5cccc6ccc(F)c(Cl)c56)ncc34)C[C@@H]2CC#N)n1 [Example 88, 2-((S)-4-(7-(8-chloro-7-fluoronaphthalen-1-yl)-8-fluoro-2-(((2R,7aS)-2-fluorotetrahydro-1H-pyrrolizin-7a(5H)-yl)methoxy)pyrido[4,3-d]pyrimidin-4-yl)-1-((E)-3-(2-ethylpyrimidin-4-yl)acryloyl)piperazin-2-yl)acetonitrile] | < 10 | 45.9 (≈ 59.7 µM) | < 10 | 4.55 |  |
| CCO[C@H]1CCN(C/C=C/C(=O)N2CCN(c3nc(OC[C@@]45CCCN4C[C@H](F)C5)nc4c(F)c(-c5cccc6cccc(Cl)c56)ncc34)C[C@@H]2CC#N)C1 [Compound 91, 2-((S)-4-(7-(8-chloronaphthalen-1-yl)-8-fluoro-2-(((2R,7aS)-2-fluorohexahydro-1H-pyrrolizin-7a-yl)methoxy)pyrido[4,3-d]pyrimidin-4-yl)-1-((E)-4-((S)-3-ethoxypyrrolidin-1-yl)but-2-enoyl)piperazin-2-yl)acetonitrile] | < 10 | 110 (≈ 143 µM) | < 10 | 1.83 |  |
| N#CC[C@H]1CN(c2nc(OCC34CCCN3CCC4)nc3c2CCN(c2cccc4cccc(Cl)c24)C3)CCN1C(=O)/C=C/c1nc(C(F)(F)F)no1 [Example 17, (S,E)-2-(4-(7-(8-chloronaphthalen-1-yl)-2-((hexahydro-1H-pyrrolizin-7a-yl)methoxy)-5,6,7,8-tetrahydropyrido[3,4-d]pyrimidin-4-yl)-1-(3-(3-(trifluoromethyl)-1,2,4-oxadiazol-5-yl)acryloyl)piperazin-2-yl)acetonitrile] | < 10 | 0.01 (≈ 0.0134 µM) | < 10 | 4.32 |  |
| Cc1nsc(/C=C/C(=O)N2CCN(c3nc(OC[C@@]45CCCN4C[C@H](F)C5)nc4c3C[C@@H](C)[C@H](c3nc(N)cc(C)c3C(F)(F)F)C4)C[C@@H]2CC#N)n1 [Compound 192] | < 10 | 2.01 (≈ 2.66 µM) | < 10 | 4.69 |  |
| CO[C@@H]1CCN(C/C=C/C(=O)N2CCN(c3nc(OC[C@@]45CCCN4C[C@H](F)C5)nc4c(F)c(-c5cccc6cccc(Cl)c56)ncc34)C[C@@H]2CC#N)C1 [Compound 191] | < 10 | 94.9 (≈ 125 µM) | < 10 | 3.18 |  |
| N#CC[C@H]1CN(c2nc(OC[C@@]34CCCN3C[C@H](F)C4)nc3c(F)c(-c4cccc5cccc(Cl)c45)ncc23)CCN1C(=O)/C=C/c1ccnc(C2CC2)n1 [Compound 154] | < 10 | 0.01 (≈ 0.0131 µM) | < 10 | 4.36 |  |
| N#CC[C@H]1CN(c2nc(OC[C@@]34CCCN3C[C@H](F)C4)nc3c(F)c(-c4cccc5cccc(Cl)c45)ncc23)CCN1C(=O)/C=C/CN1CC2CCC(C1)O2 [Example 81, 2-((2S)-1-((E)-4-(8-oxa-3-azabicyclo[3.2.1]octan-3-yl)but-2-enoyl)-4-(7-(8-chloronaphthalen-1-yl)-8-fluoro-2-(((2R,7aS)-2-fluorohexahydro-1H-pyrrolizin-7a-yl)methoxy)pyrido[4,3-d]pyrimidin-4-yl)piperazin-2-yl)acetonitrile] | < 10 | 74.4 (≈ 96.7 µM) | < 10 | 3.7 |  |
| N#CC[C@H]1CN(c2nc(OC[C@@]34CCCN3C[C@H](F)C4)nc3c(F)c(-c4cccc5cccc(F)c45)ncc23)CCN1C(=O)/C=C/CN1[C@@H]2CC[C@H]1COC2 [Compound 94, 2-((S)-1-((E)-4-((1R,5S)-3-oxa-8-azabicyclo[3.2.1]octan-8-yl)but-2-enoyl)-4-(8-fluoro-7-(8-fluoronaphthalen-1-yl)-2-(((2R,7aS)-2-fluorotetrahydro-1H-pyrrolizin-7a(5H)-yl)methoxy)pyrido[4,3-d]pyrimidin-4-yl)piperazin-2-yl)acetonitrile] | < 10 | 90.2 (≈ 120 µM) | < 10 | 3.11 |  |
| N#CC[C@H]1CN(c2nc(OC[C@@]34CCCN3C[C@H](F)C4)nc3c(F)c(-c4cccc5ccc(F)c(Cl)c45)ncc23)CCN1C(=O)/C=C/CN1CC2(COC2)C1 [Compound 161] | < 10 | 87.7 (≈ 113 µM) | < 10 | 2.75 |  |
| COCCN(C)C/C=C/C(=O)N1CCN(c2nc(OC[C@@]34CCCN3C[C@H](F)C4)nc3c(F)c(-c4cccc5cccc(Cl)c45)ncc23)C[C@@H]1CC#N [Compound 320] | < 10 | 104 (≈ 139 µM) | < 10 | 3.05 |  |
| N#CC[C@H]1CN(c2nc(OC[C@@]34CCCN3C[C@H](F)C4)nc3c(F)c(-c4cccc(Cl)c4C4CC4)ncc23)CCN1C(=O)/C=C/CN1CC2CC(C1)O2 [Compound 244] | < 10 | 121 (≈ 163 µM) | 10 to 100 | 3.13 |  |
| CO[C@H]1CCN(C/C=C/C(=O)N2CCN(c3nc(OC[C@@]45CCCN4C[C@H](F)C5)nc4c(F)c(-c5cccc6ccc(F)c(F)c56)ncc34)C[C@@H]2CC#N)C1 [Compound 217] | < 10 | 99.9 (≈ 132 µM) | < 10 | 2.01 |  |
| CC(C)c1nccc(/C=C/C(=O)N2CCN(c3nc(OC[C@@]45CCCN4C[C@H](F)C5)nc4c(F)c(-c5cccc6cccc(Cl)c56)ncc34)C[C@@H]2CC#N)n1 [Compound 151] | < 10 | 0.41 (≈ 0.536 µM) | < 10 | 3.71 |  |
| Cc1noc(/C=C/C(=O)N2CCN(c3nc(OCC45CCCN4CCC5)nc4c3CCN(c3cccc5cccc(Cl)c35)C4)C[C@@H]2CC#N)n1 [Example 1, (S,E)-2-(4-(7-(8-chloronaphthalen-1-yl)-2-((hexahydro-1H-pyrrolizin-7a-yl)methoxy)-5,6,7,8-tetrahydropyrido[3,4-d]pyrimidin-4-yl)-1-(3-(3-methyl-1,2,4-oxadiazol-5-yl)acryloyl)piperazin-2-yl)acetonitrile] | 10 to 100 |  | < 10 | 2.9 | 111.20 |
| N#CC[C@H]1CN(c2nc(OC[C@@]34CCCN3C[C@H](F)C4)nc3c(F)c(-c4cccc5ccc(F)c(Cl)c45)ncc23)CCN1C(=O)/C=C/CN1CCC(F)(F)CC1 [Example 82, 2-((S)-4-(7-(8-chloro-7-fluoronaphthalen-1-yl)-8-fluoro-2-(((2R,7aS)-2-fluorotetrahydro-1H-pyrrolizin-7a(5H)-yl)methoxy)pyrido[4,3-d]pyrimidin-4-yl)-1-((E)-4-(4,4-difluoropiperidin-1-yl)but-2-enoyl)piperazin-2-yl)acetonitrile] | < 10 | 3.46 (≈ 4.35 µM) | < 10 | 4.2 |  |
| N#CC[C@H]1CN(c2nc(OCC34CCCN3CCC4)nc3c2CCN(c2cccc4cccc(Cl)c24)C3)CCN1C(=O)/C=C/c1nc(C2CC2)no1 [Compound 23] | 10 to 100 | 12.5 (≈ 17.3 µM) | 10 to 100 | 3.38 |  |
| N#CC[C@H]1CN(c2nc(OC[C@@]34CCCN3C[C@H](F)C4)nc3c(F)c(-c4cccc5cccc(Cl)c45)ncc23)CCN1C(=O)/C=C/CN1[C@@H]2CC[C@H]1COC2 [Example 87, 2-((S)-1-((E)-4-((1R,5S)-3-oxa-8-azabicyclo[3.2.1]octan-8-yl)but-2-enoyl)-4-(7-(8-chloronaphthalen-1-yl)-8-fluoro-2-(((2R,7aS)-2-fluorohexahydro-1H-pyrrolizin-7a-yl)methoxy)pyrido[4,3-d]pyrimidin-4-yl)piperazin-2-yl)acetonitrile] | < 10 | 69.8 (≈ 90.7 µM) | < 10 | 3.27 |  |
| Cc1nccc(/C=C/C(=O)N2CCN(c3nc(OC[C@@]45CCCN4C[C@H](F)C5)nc4c(F)c(-c5nc(N)cc6cccc(Cl)c56)ncc34)C[C@@H]2CC#N)n1 [Compound 148] | < 10 | 83.8 (≈ 111 µM) | < 10 | 2.25 |  |
